These results are taken from patent US20050220715A1, “Methods and compositions for improving drug safety” (Lotus Pharmaceutical Co., Ltd., priority 2004, published 2005).

In data set [1] the test system is pregnancy. The note with it: RU-486 at 50 mg or 10 mg; cited from earlier work.
A short description of data set [2]: RU-486 and emetine composition pharmacokinetics study (RU-486 blood concentrations by HPLC). In kind it is in vivo. The note with it: human, plasma, po, one tablet (10 mg RU-486) orally, eight subjects per group. As to the method: Experiment 4: RU-486 and Emetine Composition Pharmacokinetics Studies
The studies were carried out with two test groups in parallel. The first group used the composite tablets according to preparation I described below (10 mg RU-486 and 8.4 mg emetine). The control group used tablets containing only 10 mg RU-486. The two types of tablets were similarly prepared, and they had the same appearance. A total of sixteen test subjects were involved, eight in each group. Each test subject was given one pill and blood samples were collected at 0, 0.33, 0.5, 0.75, 1, 1.5, 2, 3, 4, 6, 8, 12, 24, 48, 72, 96, and 120 hours for the determination of RU-486 concentrations in order to calculate Cmax, Tmax, AUC0-120, AUC0-∞, and T1/2 pharmacokinetics parameters.
Experiment 5: Analysis of Pharmacokinetics Samples
RU-486 blood concentration determinations: The analysis used calibrated HPLC. Calibration was performed for a concentration range from 5 to 5000 ng/ml. The internal standard for the analysis was metoclopramide, at 20 ng/ml, 400 ng/ml, and 4000 ng/ml as quality control. The lowest detectable concentration (LOQ) is 5 ng/ml.
Plasma sample preparation: Plasma (0.2 ml) was placed in a test tube, to which metoclopramide (25 μL; 7.5 ng/μL) was added as internal standard, followed by 50 μL of 0.2 M K2HPO4. The mixture was mixed by shaking for 30 seconds. Then, 3 ml of tert-butyl methyl ether was added as the extraction reagent. The mixture was mixed by shaking for 60 seconds before centrifuged at 3,000 rpm for 5 minutes. The upper clear solution was removed and placed into another test tube. This clear solution was dry with a stream of N2. To the dried residue, 200 μL of mobile phase was added. The tube was shaken for 60 seconds. Each injection used 30 μL of sample.

The subject of another data set is menstrual cycle. The note with it: RU-486 given late in the follicular phase; cited from earlier work.
Data set [3] concerns pregnancy. The note with it: cited from earlier work.

Usually Tmax stands for the time at which the peak concentration occurs. For `CC#C[C@]1(O)CC[C@H]2[C@@H]3CCC4=CC(=O)CCC4=C3[C@@H](c3ccc(N(C)C)cc3)C[C@@]21C` [Mifepristone, 17β-hydroxy-11β-(4-dimethylaminophenyl)-17α-(1-propynyl)-estra-4,9-dien-3-one], the “morning after pregnancy prevention effect” value in the data set on pregnancy [1] is “same effect as 500 mg”. In addition, the time to peak (Tmax) in data set [2] stood at 0.91 ± 0.19 h. Besides, the AUC(0-t) in data set [2] (read-out: AUC0-120 of RU-486) worked out at 8720 ± 1470 ng·h/mL. Further, the AUC(0-inf) in data set [2] (read-out: AUC0-∞ of RU-486) was determined as 9420 ± 1550 ng·h/mL. The half-life in data set [2] (read-out: T1/2 of RU-486 (converted)) was 35.2 ± 2.86 h. Moreover, the “prolongation of the follicular phase” value in the data set on menstrual cycle is 10 to 15 days. In addition, the result with abortion in the data set on pregnancy [3] (200 mg or 150 mg of RU-486) was “good results with abortion”. For the same molecule, in the data set on pregnancy [3] (600 mg RU-486 and 400 mg misprostol, within the first 49 days of pregnancy), the “success rate of early termination of pregnancy” value is listed as 97%.
